Results taken from ChEMBL document CHEMBL5365420, “Kinetics, Thermodynamics, and Structural Effects of Quinoline-2-Carboxylates, Zinc-Binding Inhibitors of New Delhi Metallo-β-lactamase-1 Re-sensitizing Multidrug-Resistant Bacteria for Carbapenems” (J Med Chem, 2023).

Key:
[1] = Inhibition of IMP-1 (unknown origin) expressed in Escherichia coli BL21-DE3 incubated for 15 mins by absorbance based microplate reader analysis; design: species or system Bacteria
[2] = molecular target: T1, 72 kDa type IV collagenase (Homo sapiens, UniProt P08253); test: Inhibition of human recombinant MMP-2 CD at 10 uM using OMNIMMP as substrate incubated for 30 mins by fluorescence based analysis relative to control
Target sequence in this assay (P08253 110-660 limits assumed): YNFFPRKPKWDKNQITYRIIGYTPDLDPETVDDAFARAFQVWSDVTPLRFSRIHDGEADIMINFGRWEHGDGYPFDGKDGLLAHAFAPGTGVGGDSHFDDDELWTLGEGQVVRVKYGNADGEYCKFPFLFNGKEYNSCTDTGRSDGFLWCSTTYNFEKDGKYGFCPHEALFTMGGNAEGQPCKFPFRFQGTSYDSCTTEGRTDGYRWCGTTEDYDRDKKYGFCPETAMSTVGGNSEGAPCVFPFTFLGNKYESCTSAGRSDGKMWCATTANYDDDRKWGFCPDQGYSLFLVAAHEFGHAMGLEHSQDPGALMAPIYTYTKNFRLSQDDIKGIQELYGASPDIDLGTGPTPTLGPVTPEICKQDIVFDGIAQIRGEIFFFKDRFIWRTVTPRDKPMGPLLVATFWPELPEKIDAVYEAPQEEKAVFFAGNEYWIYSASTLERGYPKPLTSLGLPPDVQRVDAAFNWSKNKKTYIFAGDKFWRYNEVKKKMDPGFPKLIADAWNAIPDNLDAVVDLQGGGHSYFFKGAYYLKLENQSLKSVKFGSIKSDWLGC

[3] = Inhibition of VIM-2 (unknown origin) incubated for 15 mins by absorbance based microplate reader analysis; design: species or system Bacteria
[4] = Inhibition of GIM1 (unknown origin) incubated for 15 mins by absorbance based microplate reader analysis; design: species or system Bacteria
[5] = molecular target: Histone deacetylase 1 (Homo sapiens) (UniProt Q13547); test: Inhibition of C-terminal 6His/FLAG-tagged human recombinant full-length HDAC1 (1 to 482(end) residues) at 10 uM using Boc-Lys-(Ac)-AMC as substrate incubated for 10 mins followed by substrate addition measured after 1 hr by fluorescence based analysis relative to control; conditions: time 70.0 min
Histone deacetylase 1 (Homo sapiens), sequence (Q13547 whole entry): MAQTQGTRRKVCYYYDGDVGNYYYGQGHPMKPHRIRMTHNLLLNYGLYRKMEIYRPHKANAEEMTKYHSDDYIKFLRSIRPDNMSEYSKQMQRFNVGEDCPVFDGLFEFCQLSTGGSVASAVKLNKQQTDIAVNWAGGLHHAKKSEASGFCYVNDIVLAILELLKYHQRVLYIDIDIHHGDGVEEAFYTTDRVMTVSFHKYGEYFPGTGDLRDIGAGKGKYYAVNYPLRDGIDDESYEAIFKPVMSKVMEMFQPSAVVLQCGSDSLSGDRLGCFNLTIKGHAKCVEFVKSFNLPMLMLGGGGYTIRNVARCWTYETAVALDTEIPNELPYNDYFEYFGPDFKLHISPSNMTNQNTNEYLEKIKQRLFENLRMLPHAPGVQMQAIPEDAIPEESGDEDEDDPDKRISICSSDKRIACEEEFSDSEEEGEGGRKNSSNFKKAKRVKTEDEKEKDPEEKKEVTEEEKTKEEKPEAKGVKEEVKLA

[6] = molecular target: Carbonic anhydrase 2 (Homo sapiens) (UniProt P00918); test: Inhibition of human CA2 at 10 uM using pNPA as substrate preincubated for 15 mins followed by substrate by absorbance based analysis relative to control
[7] = Selectivity ratio of Ki for human recombinant MMP-2 CD to Ki for C-terminal 6His-tagged full length NDM-1 (unknown origin)
[8] = molecular target: T1, 72 kDa type IV collagenase; test: Binding affinity to human recombinant MMP-2 CD assessed as inhibition constant using OMNIMMP as substrate incubated for 30 mins by fluorescence based analysis
Target sequence in this assay (P08253 whole entry): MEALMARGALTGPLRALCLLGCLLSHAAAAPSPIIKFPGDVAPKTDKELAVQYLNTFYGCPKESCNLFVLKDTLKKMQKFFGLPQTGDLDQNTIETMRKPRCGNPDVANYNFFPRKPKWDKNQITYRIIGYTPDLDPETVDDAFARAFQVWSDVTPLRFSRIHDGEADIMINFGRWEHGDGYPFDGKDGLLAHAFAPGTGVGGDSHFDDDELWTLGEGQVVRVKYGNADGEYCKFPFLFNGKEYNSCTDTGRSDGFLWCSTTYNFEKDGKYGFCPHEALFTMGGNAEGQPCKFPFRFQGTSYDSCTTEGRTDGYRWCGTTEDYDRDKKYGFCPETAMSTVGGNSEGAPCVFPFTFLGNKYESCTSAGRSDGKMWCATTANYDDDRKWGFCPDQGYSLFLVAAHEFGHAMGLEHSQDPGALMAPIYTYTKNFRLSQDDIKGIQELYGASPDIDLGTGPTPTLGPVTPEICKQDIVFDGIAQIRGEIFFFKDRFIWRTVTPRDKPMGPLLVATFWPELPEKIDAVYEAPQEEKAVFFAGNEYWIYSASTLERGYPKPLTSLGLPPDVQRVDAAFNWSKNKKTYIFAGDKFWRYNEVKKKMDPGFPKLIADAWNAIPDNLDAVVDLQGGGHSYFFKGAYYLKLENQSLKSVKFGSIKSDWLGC

[9] = test system: Escherichia coli; test: Antibacterial activity against clinical isolate Escherichia coli K12 J53-ST10 684/18 expressing blaNDM-1 co-expressing blaCMY-2 and blaOXA-10 assessed as meropenem MIC at 40 uM measured after 20 hrs by broth microdilution assay (reference value: 10.65 mg/L); type: functional
[10] = test system: Escherichia coli; test: Antibacterial activity against clinical isolate Escherichia coli K12 J53-ST10 684/18 expressing blaNDM-1 co-expressing blaCMY-2 and blaOXA-10 assessed as meropenem MIC at 80 uM measured after 20 hrs by broth microdilution assay (reference value: 21.3 mg/L); type: functional
[11] = test system: Escherichia coli; test: Antibacterial activity against clinical isolate Escherichia coli K12 J53-ST10 696/17 expressing blaNDM-1 co-expressing blaCMY-4 assessed as meropenem MIC at 40 uM measured after 20 hrs by broth microdilution assay (reference value: 10.65 mg/L); type: functional
[12] = test system: Escherichia coli; test: Antibacterial activity against clinical isolate Escherichia coli K12 J53-ST10 696/17 expressing blaNDM-1 co-expressing blaCMY-4 assessed as meropenem MIC at 80 uM measured after 20 hrs by broth microdilution assay (reference value: 21.3 mg/L); type: functional
[13] = test system: Escherichia coli; test: Antibacterial activity against clinical isolate Escherichia coli K12 J53-ST10 618/15 expressing blaNDM-1 assessed as meropenem MIC at 40 uM measured after 20 hrs by broth microdilution assay (reference value: 10.65 mg/L); type: functional
[14] = test system: Escherichia coli; test: Antibacterial activity against clinical isolate Escherichia coli K12 J53-ST10 618/15 expressing blaNDM-1 assessed as meropenem MIC at 80 uM measured after 20 hrs by broth microdilution assay (reference value: 21.3 mg/L); type: functional
[15] = test system: Escherichia coli; test: Antibacterial activity against clinical isolate Escherichia coli K12 J53-ST10 699/15 expressing blaNDM-1 assessed as meropenem MIC at 40 uM measured after 20 hrs by broth microdilution assay (reference value: 10.65 mg/L); type: functional
[16] = test system: Escherichia coli; test: Antibacterial activity against clinical isolate Escherichia coli K12 J53-ST10 699/15 expressing blaNDM-1 assessed as meropenem MIC at 80 uM measured after 20 hrs by broth microdilution assay (reference value: 21.3 mg/L); type: functional
[17] = test system: Acinetobacter baumannii; test: Antibacterial activity against clinical isolate Acinetobacter baumannii IC 19/09 expressing blaNDM-1 co-expressing blaOXA-64 assessed as meropenem MIC at 40 uM measured after 20 hrs by broth microdilution assay (reference value: 10.65 mg/L); type: functional
[18] = test system: Acinetobacter baumannii; test: Antibacterial activity against clinical isolate Acinetobacter baumannii IC 19/09 expressing blaNDM-1 co-expressing blaOXA-64 assessed as meropenem MIC at 80 uM measured after 20 hrs by broth microdilution assay (reference value: 21.3 mg/L); type: functional
[19] = test system: Escherichia coli; test: Antibacterial activity against clinical isolate Escherichia coli ST1012/10 expressing blaNDM-1 co-expressing blaTEM-1/blaCTX-M-15/blaOXA-1 and blaOXA-2 assessed as meropenem MIC at 40 uM measured after 20 hrs by broth microdilution assay (reference value: 10.65 mg/L); type: functional
[20] = test system: Escherichia coli; test: Antibacterial activity against clinical isolate Escherichia coli ST1012/10 expressing blaNDM-1 co-expressing blaTEM-1/blaCTX-M-15/blaOXA-1 and blaOXA-2 assessed as meropenem MIC at 80 uM measured after 20 hrs by broth microdilution assay (reference value: 21.3 mg/L); type: functional
[21] = test system: Klebsiella pneumoniae; test: Antibacterial activity against clinical isolate Klebsiella pneumoniae ST1493/10 expressing blaNDM-1 co-expressing blaCMY-2like/blaTEM-1/blaCTX-M-15/blaSHV-28/blaOXA-1 and blaOXA-9 assessed as meropenem MIC at 40 uM measured after 20 hrs by broth microdilution assay (reference value: 10.65 mg/L); type: functional
[22] = test system: Klebsiella pneumoniae; test: Antibacterial activity against clinical isolate Klebsiella pneumoniae ST1493/10 expressing blaNDM-1 co-expressing blaCMY-2like/blaTEM-1/blaCTX-M-15/blaSHV-28/blaOXA-1 and blaOXA-9 assessed as meropenem MIC at 80 uM measured after 20 hrs by broth microdilution assay (reference value: 21.3 mg/L); type: functional
[23] = test system: Klebsiella pneumoniae; test: Antibacterial activity against clinical isolate Klebsiella pneumoniae 50/11 expressing blaNDM-1 co-expressing blaTEM-1/blaSHV-28/blaTEM-1/blaCTX-M-15 and blaOXA-1 assessed as meropenem MIC at 40 uM measured after 20 hrs by broth microdilution assay (reference value: 10.65 mg/L); type: functional
[24] = test system: Klebsiella pneumoniae; test: Antibacterial activity against clinical isolate Klebsiella pneumoniae 50/11 expressing blaNDM-1 co-expressing blaTEM-1/blaSHV-28/blaTEM-1/blaCTX-M-15 and blaOXA-1 assessed as meropenem MIC at 80 uM measured after 20 hrs by broth microdilution assay (reference value: 21.3 mg/L); type: functional
[25] = test system: Klebsiella pneumoniae; test: Antibacterial activity against clinical isolate Klebsiella pneumoniae 50/20 expressing blaNDM-5 co-expressing blaTEM-1 and blaSHV-1 assessed as meropenem MIC at 40 uM measured after 20 hrs by broth microdilution assay (reference value: 10.65 mg/L); type: functional
[26] = test system: Klebsiella pneumoniae; test: Antibacterial activity against clinical isolate Klebsiella pneumoniae 50/20 expressing blaNDM-5 co-expressing blaTEM-1 and blaSHV-1 assessed as meropenem MIC at 80 uM measured after 20 hrs by broth microdilution assay (reference value: 21.3 mg/L); type: functional
[27] = test system: Escherichia coli; test: Antibacterial activity against clinical isolate Escherichia coli 371/12 expressing blaNDM-7 co-expressing blaCTX-M-15 and blaOXA-1 assessed as meropenem MIC at 40 uM measured after 20 hrs by broth microdilution assay (reference value: 10.65 mg/L); type: functional
[28] = test system: Escherichia coli; test: Antibacterial activity against clinical isolate Escherichia coli 371/12 expressing blaNDM-7 co-expressing blaCTX-M-15 and blaOXA-1 assessed as meropenem MIC at 80 uM measured after 20 hrs by broth microdilution assay (reference value: 21.3 mg/L); type: functional
[29] = test system: Klebsiella pneumoniae; test: Antibacterial activity against clinical isolate Klebsiella pneumoniae ST23213/19 expressing blaNDM-1 co-expressing blaOXA-48/blaSHV-11/blaCTX-M-15 and blaOXA-1 assessed as meropenem MIC at 40 uM measured after 20 hrs by broth microdilution assay (reference value: 10.65 mg/L); type: functional
[30] = test system: Klebsiella pneumoniae; test: Antibacterial activity against clinical isolate Klebsiella pneumoniae ST23213/19 expressing blaNDM-1 co-expressing blaOXA-48/blaSHV-11/blaCTX-M-15 and blaOXA-1 assessed as meropenem MIC at 80 uM measured after 20 hrs by broth microdilution assay (reference value: 21.3 mg/L); type: functional
[31] = test system: Klebsiella pneumoniae; test: Antibacterial activity against clinical isolate Klebsiella pneumoniae 62/07 expressing blaVIM-19 co-expressing blaSHV-1/blaCTX-M-14 and blaCMY-4 assessed as meropenem MIC at 40 uM measured after 20 hrs by broth microdilution assay (reference value: 10.65 mg/L); type: functional
[32] = test system: Klebsiella pneumoniae; test: Antibacterial activity against clinical isolate Klebsiella pneumoniae 62/07 expressing blaVIM-19 co-expressing blaSHV-1/blaCTX-M-14 and blaCMY-4 assessed as meropenem MIC at 80 uM measured after 20 hrs by broth microdilution assay (reference value: 21.3 mg/L); type: functional
[33] = molecular target: Metallo-beta-lactamase type 2 (Bacteria, UniProt C7C422)
Metallo-beta-lactamase type 2, sequence (C7C422 whole entry): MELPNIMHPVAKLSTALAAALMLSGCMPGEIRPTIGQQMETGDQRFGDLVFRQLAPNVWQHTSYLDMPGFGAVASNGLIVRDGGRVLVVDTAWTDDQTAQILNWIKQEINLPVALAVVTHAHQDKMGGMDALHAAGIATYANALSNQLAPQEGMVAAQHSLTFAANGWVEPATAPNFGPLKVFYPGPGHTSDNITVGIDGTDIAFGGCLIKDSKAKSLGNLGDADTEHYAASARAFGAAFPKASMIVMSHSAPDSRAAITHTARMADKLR
Description: Inhibition of C-terminal 6His-tagged full length NDM-1 (unknown origin) expressed in Escherichia coli BL21-DE3 using nitrocefin as substrate incubated for 15 mins followed by substrate addition by absorbance based microplate reader analysis

IC50 [1]: 7.27 µM
inhibition [2]: > 90%
IC50 [3]: 0.79 µM
IC50 [4]: 50.1 µM
inhibition [5]: < 5%
inhibition [6]: < 5%
Ratio Ki [7]: 5
Ki [8]: 4.08 µM
MIC [9]: ≤ 0.125 µg/mL
MIC [10]: ≤ 0.125 µg/mL
MIC [11]: ≤ 0.125 µg/mL
MIC [12]: ≤ 0.125 µg/mL
MIC [13]: ≤ 0.125 µg/mL
MIC [14]: ≤ 0.125 µg/mL
MIC [15]: ≤ 0.125 µg/mL
MIC [16]: ≤ 0.125 µg/mL
MIC [17]: 4 µg/mL
MIC [18]: 2 µg/mL
MIC [19]: ≤ 0.125 µg/mL
MIC [20]: ≤ 0.125 µg/mL
MIC [21]: 4 µg/mL
MIC [22]: 2 µg/mL
MIC [23]: ≤ 0.125 µg/mL
MIC [24]: ≤ 0.125 µg/mL
MIC [25]: ≤ 0.125 µg/mL
MIC [26]: ≤ 0.125 µg/mL
MIC [27]: 2 µg/mL
MIC [28]: 0.25 µg/mL
MIC [29]: 16 µg/mL
MIC [30]: 16 µg/mL
MIC [31]: 1 µg/mL
MIC [32]: 0.5 µg/mL
IC50 [33]: 1.64 µM
SMILES: CS(=O)(=O)Nc1cccc2ccc(C(=O)O)nc12
